Measured values as given in US11357779B2 (G1 Therapeutics, Inc., priority 2018, dated 2022).
Where two headings read alike, the source gives them in different places.

Experiment: Plasma concentration versus time of Compound I and metabolite Compound III in patients dosed QD or BID with Form B of Compound II plus fulvestrant
Assay type: in vivo, human
Conditions: human, plasma, oral; for concentration at 8 day: Day 8; for concentration at 15 day: Day 15; for concentration at 22 day: Day 22
Description: Patients were enrolled into 1 of 2 parallel, independently operating, dose-escalation dosing cohorts with Form B of Compound II administered continuously either once daily (QD) or twice daily (BID) with food with fixed-dose fulvestrant (intramuscularly every 14 days for the first three injections and then every 28 days). Pre- or perimenopausal patients also received goserelin for the duration of study treatment. A […] agonist was started at least 28 days before the first dose of Form B, and those patients who were taking another LHRH agonist were switched to goserelin on Day 1. Patients were split into […] cohorts providing once a day (QD) dosing of 200 mg, 300 mg, 400 mg, 500 mg, or 650 mg of Form B, or twice a day (BID) dosing of 100 mg, 150 mg, or 200 mg of Form B. The second dose in BID cohorts was not administered in the evening until at least 12 hours after the initial morning dose of Form B. The dosing cohorts for Form B of Compound II are provided in Table 1.
Blood samples were collected at the following time points relative to the morning dose of Form B at Day 1 and at Day 29: pre-dose (0 hour) and 1, 2, 3, 4, 6, 8, 10, 12 (prior to the evening dose in the BID cohorts), and 24 (prior to the next day's morning dose) hours after dosing. A 5-minute time window was allowed for samples collected between the predose and 3 hours after Form B dosing. A 15-minute window was allowed for samples collected between 4 to 12 hours after Form B dosing. A 1-hour window was allowed for the sample collected 24 hours after Form B dosing. Blood samples for Compound I PK trough levels were collected pre-dose at Day 8, Day 15, and Day 22 prior to the morning administration of Compound I. Plasma concentrations of Compound I and its metabolite, Compound III, were measured using validated methods.
Analysis of plasma concentration versus time data for calculation of standard pharmacokinetic (PK) parameters following oral administration was conducted using Phoenix WinNonlin version 6.3 using actual blood sampling times.

[1] = 650 mg, Cohort 5, 650 mg QD of Form B, read-out: Trough Compound III Concentration, Max
[2] = 650 mg, Cohort 5, 650 mg QD of Form B, read-out: Trough Compound III Concentration, Mean
[3] = 650 mg, Cohort 5, 650 mg QD of Form B, read-out: Trough Compound III Concentration, Median
[4] = 650 mg, Cohort 5, 650 mg QD of Form B, read-out: Trough Compound III Concentration, Min

- concentration at 8 h (500 mg, Cohort 4, 500 mg QD of Form B, Day 29, 8.0 h, read-out: Compound III Concentration, Mean): 3.56 ng/mL
- concentration at 8 h (500 mg, Cohort 4, 500 mg QD of Form B, Day 29, 8.0 h, read-out: Compound III Concentration, Min): 3.3 ng/mL
- concentration at 10 h (500 mg, Cohort 4, 500 mg QD of Form B, Day 29, 10.0 h, read-out: Compound III Concentration, Max): 2.88 ng/mL
- concentration at 10 h (500 mg, Cohort 4, 500 mg QD of Form B, Day 29, 10.0 h, read-out: Compound III Concentration, Mean): 2.66 ng/mL
- concentration at 10 h (500 mg, Cohort 4, 500 mg QD of Form B, Day 29, 10.0 h, read-out: Compound III Concentration, Min): 2.52 ng/mL
- concentration at 12 h (500 mg, Cohort 4, 500 mg QD of Form B, Day 29, 12.0 h, read-out: Compound III Concentration, Max): 2.55 ng/mL
- concentration at 12 h (500 mg, Cohort 4, 500 mg QD of Form B, Day 29, 12.0 h, read-out: Compound III Concentration, Mean): 2.33 ng/mL
- concentration at 12 h (500 mg, Cohort 4, 500 mg QD of Form B, Day 29, 12.0 h, read-out: Compound III Concentration, Min): 2.1 ng/mL
- concentration at 24 h (500 mg, Cohort 4, 500 mg QD of Form B, Day 29, […], read-out: Compound III Concentration, Mean): 1.24 ng/mL
- concentration at 24 h (500 mg, Cohort 4, 500 mg QD of Form B, Day 29, […], read-out: Compound III Concentration, Min): 0.959 ng/mL
- concentration at 0 h (650 mg, 650 mg QD of Form B, Day 1, 0.0 h, Mean, read-out: Compound III Concentration): 0 ng/mL
- concentration at 0 h (650 mg, 650 mg QD of Form B, Day 1, 0.0 h, Median, read-out: Compound III Concentration): 0 ng/mL
- concentration at 1 h (650 mg, 650 mg QD of Form B, Day 1, 1.0 h, Mean, read-out: Compound III Concentration): 2.73 ng/mL
- concentration at 1 h (650 mg, 650 mg QD of Form B, Day 1, 1.0 h, Median, read-out: Compound III Concentration): 2.77 ng/mL
- concentration at 2 h (650 mg, 650 mg QD of Form B, Day 1, 2.0 h, Mean, read-out: Compound III Concentration): 4.01 ng/mL
- concentration at 2 h (650 mg, 650 mg QD of Form B, Day 1, 2.0 h, Median, read-out: Compound III Concentration): 3.81 ng/mL
- concentration at 3 h (650 mg, 650 mg QD of Form B, Day 1, 3.0 h, Mean, read-out: Compound III Concentration): 6.13 ng/mL
- concentration at 3 h (650 mg, 650 mg QD of Form B, Day 1, 3.0 h, Median, read-out: Compound III Concentration): 6.43 ng/mL
- concentration at 4 h (650 mg, 650 mg QD of Form B, Day 1, 4.0 h, Mean, read-out: Compound III Concentration): 8.35 ng/mL
- concentration at 4 h (650 mg, 650 mg QD of Form B, Day 1, 4.0 h, Median, read-out: Compound III Concentration): 9.22 ng/mL
- concentration at 6 h (650 mg, 650 mg QD of Form B, Day 1, 6.0 h, Mean, read-out: Compound III Concentration): 9.69 ng/mL
- concentration at 6 h (650 mg, 650 mg QD of Form B, Day 1, 6.0 h, Median, read-out: Compound III Concentration): 10 ng/mL
- concentration at 8 h (650 mg, 650 mg QD of Form B, Day 1, 8.0 h, Mean, read-out: Compound III Concentration): 10.1 ng/mL
- concentration at 8 h (650 mg, 650 mg QD of Form B, Day 1, 8.0 h, Median, read-out: Compound III Concentration): 8.66 ng/mL
- concentration at 10 h (650 mg, 650 mg QD of Form B, Day 1, 10.0 h, Mean, read-out: Compound III Concentration): 6.63 ng/mL
- concentration at 10 h (650 mg, 650 mg QD of Form B, Day 1, 10.0 h, Median, read-out: Compound III Concentration): 5.32 ng/mL
- concentration at 12 h (650 mg, 650 mg QD of Form B, Day 1, 12.0 h, Mean, read-out: Compound III Concentration): 5.12 ng/mL
- concentration at 12 h (650 mg, 650 mg QD of Form B, Day 1, 12.0 h, Median, read-out: Compound III Concentration): 4.41 ng/mL
- concentration at 24 h (650 mg, 650 mg QD of Form B, Day 1, […], Mean, read-out: Compound III Concentration): 2.17 ng/mL
- concentration at 24 h (650 mg, 650 mg QD of Form B, Day 1, […], Median, read-out: Compound III Concentration): 1.51 ng/mL
- concentration at 8 day [1]: 4.96 ng/mL
- concentration at 8 day [2]: 3.55 ng/mL
- concentration at 8 day [3]: 3.79 ng/mL
- concentration at 8 day [4]: 1.65 ng/mL
- concentration at 15 day [1]: 3.6 ng/mL
- concentration at 15 day [2]: 3.13 ng/mL
- concentration at 15 day [3]: 3.52 ng/mL
- concentration at 15 day [4]: 2.28 ng/mL
- concentration at 22 day [1]: 5.65 ng/mL
- concentration at 22 day [2]: 3.7 ng/mL
- concentration at 22 day [3]: 3.11 ng/mL
- concentration at 22 day [4]: 2.34 ng/mL
- concentration at 0 h (650 mg, Cohort 5, 650 mg QD of Form B, Day 29, 0.0 h, read-out: Compound III Concentration, Median): 2.06 ng/mL
- concentration at 0 h (650 mg, Cohort 5, 650 mg QD of Form B, Day 29, 0.0 h, read-out: Compound III Concentration, Min): 1.3 ng/mL
- concentration at 1 h (650 mg, Cohort 5, 650 mg QD of Form B, Day 29, 1.0 h, read-out: Compound III Concentration, Median): 2.49 ng/mL
- concentration at 1 h (650 mg, Cohort 5, 650 mg QD of Form B, Day 29, 1.0 h, read-out: Compound III Concentration, Min): 1.28 ng/mL
- concentration at 2 h (650 mg, Cohort 5, 650 mg QD of Form B, Day 29, 2.0 h, read-out: Compound III Concentration, Median): 3.14 ng/mL
- concentration at 2 h (650 mg, Cohort 5, 650 mg QD of Form B, Day 29, 2.0 h, read-out: Compound III Concentration, Min): 1.85 ng/mL
- concentration at 3 h (650 mg, Cohort 5, 650 mg QD of Form B, Day 29, 3.0 h, read-out: Compound III Concentration, Median): 3.89 ng/mL
- concentration at 3 h (650 mg, Cohort 5, 650 mg QD of Form B, Day 29, 3.0 h, read-out: Compound III Concentration, Min): 2.61 ng/mL
- concentration at 4 h (650 mg, Cohort 5, 650 mg QD of Form B, Day 29, 4.0 h, read-out: Compound III Concentration, Median): 4.78 ng/mL
- concentration at 4 h (650 mg, Cohort 5, 650 mg QD of Form B, Day 29, 4.0 h, read-out: Compound III Concentration, Min): 3.42 ng/mL
- concentration at 6 h (650 mg, Cohort 5, 650 mg QD of Form B, Day 29, 6.0 h, read-out: Compound III Concentration, Median): 7.57 ng/mL
- concentration at 6 h (650 mg, Cohort 5, 650 mg QD of Form B, Day 29, 6.0 h, read-out: Compound III Concentration, Min): 5.3 ng/mL
- concentration at 8 h (650 mg, Cohort 5, 650 mg QD of Form B, Day 29, 8.0 h, read-out: Compound III Concentration, Median): 8.64 ng/mL
- concentration at 8 h (650 mg, Cohort 5, 650 mg QD of Form B, Day 29, 8.0 h, read-out: Compound III Concentration, Min): 5.18 ng/mL
- concentration at 10 h (650 mg, Cohort 5, 650 mg QD of Form B, Day 29, 10.0 h, read-out: Compound III Concentration, Min): 4.64 ng/mL
- concentration at 12 h (650 mg, Cohort 5, 650 mg QD of Form B, Day 29, 12.0 h, read-out: Compound III Concentration, Min): 3.42 ng/mL
- concentration at 24 h (650 mg, Cohort 5, 650 mg QD of Form B, Day 29, […], read-out: Compound III Concentration, Median): 3.04 ng/mL
- concentration at 24 h (650 mg, Cohort 5, 650 mg QD of Form B, Day 29, […], read-out: Compound III Concentration, Min): 2.49 ng/mL
Structure (SMILES): O=C1NCC2(CCCCC2)n2c1cc1cnc(Nc3ccc(N4CCNCC4)cn3)nc12 [Compound III, 2′-((5-(piperazin-1-yl)pyridin-2-yl)amino)-7′,8′-dihydro-6′H-spiro[cyclohexane-1,9′-pyrazino[1′,2′:1,5]pyrrolo[2,3-d]pyrimidin]-6′-one]
